≈ marks a conversion by molar mass, not a printed value. Structures can show the parent of a compound that is named as a salt. Where two headings read alike, the source gives them in different places.
Experiments:
E. coli = assay: Gram negative MIC protocol (OD600, LB, 24 h); conditions: Escherichia coli
Method: (§1) Overnight bacterial cultures were grown in LB with no added antibiotics at 37° C. with shaking. A 1:1000 dilution of these cultures into LB was exposed to concentration gradients of compounds in 96-well plates (100 μL per well assay volume). Resulting plates were incubated at 37° C. for 24 h without shaking, and OD600 was measured at the end of the incubation. MICs were determined as the lowest concentrations at which OD600 remained at baseline.

H37RvMA = assay: Tuberculosis Alamar Blue/Resazurin assay (MIC); type: cell-based; conditions: Mycobacterium tuberculosis, H37RV, read-out: WT H37Rv MTB Activity
A. baumannii = assay: Gram negative MIC protocol (OD600, LB, 24 h); conditions: Acinetobacter baumannii
Method: as §1

[1] = read-out: MIC E. coli delta-TolC LB Media, E. coli delta-TolC, LB media, OD600
[2] = read-out: MIC WT E. coli LB Media, WT E. coli, LB media, OD600
[3] = read-out: MIC A. baumannii LB Media
[4] = read-out: MIC A. baumannii LB Media, A. baumannii, LB media, 24 h, OD600
[5] = read-out: MIC E. coli delta-TolC LB Media, E. coli delta-TolC strain, LB media, 24 h, OD600
[6] = read-out: MIC WT E. coli LB Media, wild-type E. coli, LB media, 24 h, OD600

Row | SMILES | MIC (E. coli; [1]) [µM] | MIC (E. coli; [2]) [µM] | MIC (H37RvMA) [µM] | MIC (A. baumannii; [3]) [µM] | MIC (H37RvMA; WT H37Rv MTB) [µM] | MIC (A. baumannii; [4]) [µM] | MIC (E. coli; [5]) [µM] | MIC (E. coli; [6]) [µM]
1 | CC(CC1CCCCC1)NCc1ccccc1CCC(=O)O (stereo not shown) [B401, 3-(2-((1-cyclohexylpropan-2-ylamino)methyl)phenyl)propanoic acid trifluoroacetate] | 33 | > 150 | > 150 | > 150 |  |  |  | 
2 | c1ccc(CNC[C@@H]2C[C@H]2c2ccccc2)cc1 [B61] | > 150 | > 150 |  |  | > 150 | > 150 |  | 
3 | COC(=O)c1ccc(COc2ccccc2CNC(C)CC2CCCCC2)o1 (stereo not shown) [B252] |  |  |  |  | 150 (≈ 57.8 µg/mL) | 150 (≈ 57.8 µg/mL) | 4 (≈ 1.54 µg/mL) | > 150
4 | CC(CN1Cc2ccccc2CC1=O)C1CCCCC1 (stereo not shown) [B413, 2-(2-cyclohexylpropyl)-1,4-dihydroisoquinolin-3(2H)-one] | 55 (≈ 14.9 µg/mL) | > 150 |  |  | 7.4 (≈ 2.01 µg/mL) | > 150 |  | 
5 | Clc1cc(CCNCc2ccccc2)cc2c1OCCO2 [B55] | > 150 | > 150 | 150 (≈ 45.6 µg/mL) | > 150 |  |  |  | 
6 | CC1CCc2ccccc2N1CCNCc1ccccc1 (stereo not shown) [B145] | > 150 | > 150 |  |  | 91 (≈ 25.5 µg/mL) | > 150 |  | 
7 | C1=CC2CCC1CC2CNCc1ccccc1 (stereo not shown) [B122] | > 150 | > 150 |  |  | 150 (≈ 34.1 µg/mL) | > 150 |  | 
8 | CC1CCC(CC(C)NCc2ccccc2OCc2ccccc2F)CC1 (stereo not shown) [B465, N-(2-((2-fluorobenzyl)oxy)benzyl)-1-(4-methylcyclohexyl)propan-2-amine] | 7 (≈ 2.59 µg/mL) | > 150 |  |  | 20 (≈ 7.39 µg/mL) | 90 (≈ 33.3 µg/mL) |  | 
9 | OC1CCCCC1CCNCc1ccccc1 (stereo not shown) [B189] | > 300 | > 300 |  |  | > 150 | > 300 |  | 
10 | COC(=O)C(C)Oc1ccccc1CNC(C)CC1CCCCC1 (stereo not shown) [B327] |  |  |  |  | > 150 | > 150 | 7 (≈ 2.33 µg/mL) | > 150
11 | CC(CC1CCCCC1)NCc1ccccc1OC(F)F (stereo not shown) [B291] |  |  |  |  | > 150 | > 150 | 12 (≈ 3.57 µg/mL) | 91 (≈ 27.1 µg/mL)
12 | FC(F)(F)C(CC1CCCCC1)NCc1ccccc1 (stereo not shown) [B177] | > 300 | > 300 |  |  | > 150 | > 300 |  | 
13 | CC(CC1CCOC1)NCc1ccccc1 (stereo not shown) [B31] | > 150 | > 150 |  |  | > 150 | > 150 |  | 
14 | CC(CC1CCCCC1)NCc1ccccc1OCCCN(C)C1CCCC1 (stereo not shown) [B344] |  |  |  |  | 150 (≈ 58 µg/mL) | 91 (≈ 35.2 µg/mL) | 91 (≈ 35.2 µg/mL) | 150 (≈ 58 µg/mL)
15 | c1ccc(CNCC2CCCCC2)cc1 [B9] | > 150 | > 150 |  |  | > 150 | > 150 |  | 
16 | Nc1ccccc1CNCCC1CCCCC1 [B235, 2-((2-cyclohexylethylamino)methyl)aniline hydrochloride] |  |  |  |  | > 150 | > 300 | 96 | 96
17 | c1cncc(-c2ccccc2CNCCC2CCCCC2)c1 [B231, 2-cyclohexyl-N-(2-(pyridin-3-yl)benzyl)ethanamine hydrochloride] |  |  |  |  | > 150 | > 300 | 54 | 300
18 | CC(CC1CCCO1)NCc1ccccc1 (stereo not shown) [B20] | > 150 | > 150 |  |  | > 150 | > 150 |  | 
19 | CC(CC1CCCCC1)NCc1ccccc1OCCCS(C)(=O)=O (stereo not shown) [B299] |  |  |  |  | > 150 | 150 (≈ 55.1 µg/mL) | 4 (≈ 1.47 µg/mL) | 150 (≈ 55.1 µg/mL)
20 | CC(CC1CCCCC1)NCc1ccccc1NC(=O)c1ccccc1F (stereo not shown) [B398, N-(2-(((1-cyclohexylpropan-2-yl)amino)methyl)phenyl)-2-fluorobenzamide hydrochloride] | 91 | > 150 |  |  | 150 | > 150 |  | 

Row | SMILES | MIC (E. coli; [1]) [µM] | MIC (E. coli; [2]) [µM] | MIC (H37RvMA) [µM] | MIC (A. baumannii; [3]) [µM] | MIC (H37RvMA; WT H37Rv MTB) [µM] | MIC (A. baumannii; [4]) [µM] | MIC (E. coli; [5]) [µM] | MIC (E. coli; [6]) [µM]
21 | Fc1cc(CCNCc2ccccc2)c2c(c1)COCO2 [B21] | > 150 | > 150 |  |  | > 150 | > 150 |  | 
22 | c1ccc(CNCCC2CCCC2)cc1 [B128] | > 150 | > 150 |  |  | > 150 | > 150 |  | 
23 | C1=C(CC2CCCN2Cc2ccccc2)CCCC1 (stereo not shown) [B161] | > 300 | > 300 |  |  | > 150 | > 150 |  | 
24 | CC(CC1CCCCC1)NCc1ccccc1OCc1nc(C(C)C)no1 (stereo not shown) [B323] |  |  |  |  | 150 (≈ 55.7 µg/mL) | > 150 | 4 (≈ 1.49 µg/mL) | > 150
25 | CCc1ccccc1CNCCC1CCCCC1 [B228, 2-cyclohexyl-N-(2-ethylbenzyl)ethanamine hydrochloride] |  |  |  |  | 91 | 300 | 20 | 170
26 | c1ccc(CNCCC23CC4CC(CC(C4)C2)C3)cc1 [B104] | 91 (≈ 24.5 µg/mL) | > 150 |  |  | 55 (≈ 14.8 µg/mL) | > 150 |  | 
27 | CC(C)NC(=O)COc1ccccc1CNC(C)CC1CCCCC1 (stereo not shown) [B358] |  |  |  |  | > 150 | > 150 | 20 (≈ 6.93 µg/mL) | > 150
28 | CC(CC1CCCCC1)NCc1ccccc1OCc1ccccc1C(C)C (stereo not shown) [B458, 1-cyclohexyl-N-(2-((2-isopropylbenzyl)oxy)benzyl)propan-2-amine] | 4 (≈ 1.52 µg/mL) | > 150 |  |  | 10 (≈ 3.8 µg/mL) | 20 (≈ 7.59 µg/mL) |  | 
29 | CCOCCOc1ccccc1CNC(C)CC1CCCCC1 (stereo not shown) [B313] |  |  |  |  | > 150 | > 150 | 7 (≈ 2.24 µg/mL) | > 150
30 | CC(CC1CCCCC1)NCc1ccccc1OCCC(C)(C)O (stereo not shown) [B275] |  |  |  |  | > 150 | 91 (≈ 30.3 µg/mL) | 4 (≈ 1.33 µg/mL) | 150 (≈ 50 µg/mL)
31 | CC(CC1CCCCC1)NCc1ccccc1OCc1ccccc1I (stereo not shown) [B388, 1-cyclohexyl-N-(2-((2-iodobenzyl)oxy)benzyl)propan-2-amine] |  |  |  |  | 33.4 (≈ 15.5 µg/mL) | 33 (≈ 15.3 µg/mL) | 7 (≈ 3.24 µg/mL) | 150 (≈ 69.5 µg/mL)
32 | CC(CC1CCCCC1)NCc1ccccc1OC1CC2CCC1C2 (stereo not shown) [B390, N-(2-(bicyclo[2.2.1]heptan-2-yloxy)benzyl)-1-cyclohexylpropan-2-amine] |  |  |  |  | 20.2 (≈ 6.9 µg/mL) | 55 (≈ 18.8 µg/mL) | 3 (≈ 1.02 µg/mL) | 150 (≈ 51.2 µg/mL)
33 | c1ccc(CNCCN2CCCC3CCCCC32)cc1 (stereo not shown) [B124] | > 150 | > 150 |  |  | > 150 | > 150 |  | 
34 | c1ccc(CNCCc2cccc3ccccc23)cc1 [B192] | 96 (≈ 25.1 µg/mL) | 300 (≈ 78.4 µg/mL) |  |  | 33 (≈ 8.63 µg/mL) | 300 (≈ 78.4 µg/mL) |  | 
35 | CC(CC1CCCCC1)NCc1ccccc1OCCCO (stereo not shown) [B251] |  |  |  |  | > 150 | 91 (≈ 27.8 µg/mL) | 7 (≈ 2.14 µg/mL) | 91 (≈ 27.8 µg/mL)
36 | CC(C)(Cc1ccc(C(F)(F)F)cc1)NCc1ccccc1 [B93] | > 150 | > 150 | > 150 | > 150 |  |  |  | 
37 | CC(CC1CCCCC1)NCc1ccccc1OCc1nccs1 (stereo not shown) [B240] |  |  |  |  | 150 (≈ 51.7 µg/mL) | > 150 | 7 (≈ 2.41 µg/mL) | > 150
38 | C[C@H](NCc1ccccc1)[C@H](O)c1ccc2c(c1)OCO2 [B53] | > 150 | > 150 | > 150 |  |  | > 150 |  | 
39 | c1ccc(CNCCC2CC3CCC2O3)cc1 (stereo not shown) [B66] | > 150 | > 150 |  |  | > 150 | > 150 |  | 
40 | NS(=O)(=O)Cc1ccccc1CNCCC1CCCCC1 [B380] |  |  |  |  | > 150 | > 150 | 12 (≈ 3.73 µg/mL) | 33 (≈ 10.2 µg/mL)
